Results on 28 compounds are retold here after patent publication US20240228535A1 (priority 2022, published 2024).

Structures are written as SMILES.

This experiment addresses SARS2 coronavirus 3CL protease (Severe acute respiratory syndrome coronavirus 2, UniProt P0DTD1). The experiment in a line: biochemical. The settings on record: 5 nM enzyme, 30 min pre-incubation with compound, 15 μM peptide substrate, 4 h at room temperature; read-out: FRET Potency (nM); IC50 values in the SARS2 3CLPro FRET assay.
For the compound `C[C@@H]1C[C@@H](C[C@H](NC(=O)c2cc(Cl)ccc2NC(=O)c2ccc(C(F)(F)F)nc2)C(=O)C(=O)NC2CC2)C(=O)N1` [Example 225, N-[4-chloro-2-[[(1S)-3-(cyclopropylamino)-1-[[(3S,5R)-5-methyl-2-oxo-pyrrolidin-3-yl]methyl]-2,3-dioxo-propyl]carbamoyl]phenyl]-6-(trifluoromethyl)pyridine-3-carboxamide], the IC50 is 6.8 nM.
Take `C[C@@H]1C[C@@H](C[C@H](NC(=O)c2cc(Cl)ccc2NC(=O)[C@@H]2CN(C)C(=O)O2)C(=O)C(=O)NC2CC2)C(=O)N1` [Example 204, (5S)-N-[4-chloro-2-[[(1S)-3-(cyclopropylamino)-1-[[(3S,5R)-5-methyl-2-oxo-pyrrolidin-3-yl]methyl]-2,3-dioxo-propyl]carbamoyl]phenyl]-3-methyl-2-oxo-oxazolidine-5-carboxamide]: the IC50 worked out at 4.7 nM.
The result for `CNC(=O)C(=O)[C@H](C[C@@H]1CCNC1=O)NC(=O)c1cc(Cl)ccc1NC(=O)c1ccnc(C(F)(F)F)c1` [Example 90] reads 12.3 nM.
The result for `CNC(=O)C(=O)[C@H](C[C@@H]1C[C@@H](C)NC1=O)NC(=O)c1cc(C#N)cnc1NC(=O)c1cc(C(F)(F)F)cc(C(F)(F)F)c1` [Example 4, 2-(3,5-bis(trifluoromethyl)benzamido)-5-cyano-N—((S)-1-((3S,5R)-5-methyl-2-oxopyrrolidin-3-yl)-4-(methylamino)-3,4-dioxobutan-2-yl)nicotinamide] reads 11.5 nM; that for `CNC(=O)C(=O)[C@H](C[C@@H]1C[C@@H](C)NC1=O)NC(=O)c1cc(Cl)ccc1NC(=O)c1ccnc(C(F)(F)F)c1` [Example 74], 6.2 nM; that for `CNC(=O)C(=O)[C@H](C[C@@H]1C[C@@H](C)NC1=O)NC(=O)c1cc(Cl)ccc1NC(=O)OC1CCC(F)(F)C1` (stereo partly drawn) [Example 201, (3,3-difluorocyclopentyl) N-[4-chloro-2-[(1S)-3-(methylamino)-1-[[(3S,5R)-5-methyl-2-oxo-pyrrolidin-3-yl]methyl]-2,3-dioxo-propyl]carbamoyl]phenyl] carbamate], 7 nM.
The result for `CNC(=O)C(=O)[C@H](C[C@@H]1C[C@@H](C)NC1=O)NC(=O)c1cc(Cl)ccc1NC(=O)c1ccc(C(F)(F)F)cn1` [Example 55, N-[4-chloro-2-[[(1S)-3-(methylamino)-1-[[(3S,5R)-5-methyl-2-oxo-pyrrolidin-3-yl]methyl]-2,3-dioxo-propyl]carbamoyl]phenyl]-5-(trifluoromethyl)pyridine-2-carboxamide] reads 8.2 nM; that for `CNC(=O)C(=O)[C@H](C[C@@H]1CCNC1=O)NC(=O)c1cc(F)c(F)cc1NC(=O)OC` [Example 109, methyl N-[4,5-difluoro-2-[[(1S)-3-(methylamino)-2,3-dioxo-1-[[(3S)-2-oxopyrrolidin-3-yl]methyl]propyl]carbamoyl]phenyl]carbamate], 6 nM.
On to `CNC(=O)C(=O)[C@H](C[C@@H]1C[C@@H](C)NC1=O)NC(=O)c1cc(Cl)ccc1NC(=O)OC1CCC1` [Example 151, cyclobutyl N-[4-chloro-2-[[(1S)-3-(methylamino)-1-[[(3S,5R)-5-methyl-2-oxo-pyrrolidin-3-yl]methyl]-2,3-dioxo-propyl]carbamoyl]phenyl] carbamate], for which the IC50 came out at 5.1 nM.
To `CNC(=O)C(=O)[C@H](C[C@@H]1C[C@@H](C)NC1=O)NC(=O)c1cc(Cl)c(F)cc1NC(=O)OC1CC1` [Example 154, cyclopropyl N-[4-chloro-5-fluoro-2-[(1S)-3-(methylamino)-1-[[(3S,5R)-5-methyl-2-oxo-pyrrolidin-3-yl]methyl]-2,3-dioxo-propyl]carbamoyl]phenyl] carbamate] belongs 4.5 nM; to `CNC(=O)C(=O)[C@H](C[C@@H]1C[C@@H](C)NC1=O)NC(=O)c1cc(Cl)ncc1NC(=O)OC` [Example 118], 23.9 nM.
In the case of `CNC(=O)C(=O)[C@H](C[C@@H]1C[C@@H](C)NC1=O)NC(=O)c1cc(Cl)ccc1NC(=O)C(C)c1ccc(C(F)(F)F)nc1` (single isomer, unassigned) [Example 230], the IC50 is 7 nM.
The result for `CNC(=O)C(=O)[C@H](C[C@@H]1C[C@@H](C)NC1=O)NC(=O)c1cc(C(F)F)ccc1NC(=O)c1ccnc(C(F)(F)F)c1` [Example 222, N-[4-(difluoromethyl)-2-[[(1S)-3-(methylamino)-1-[[(3S,5R)-5-methyl-2-oxo-pyrrolidin-3-yl]methyl]-2,3-dioxo-propyl]carbamoyl]phenyl]-2-(trifluoromethyl)pyridine-4-carboxamide] reads 5.2 nM; that for `C[C@@H]1C[C@@H](C[C@H](NC(=O)c2cc(Cl)cnc2NC(=O)c2cccc(F)c2)C(=O)C(=O)NC2CC2)C(=O)N1` [Example 58, 5-chloro-N-[(1S)-3-(cyclopropylamino)-1-[[(3S,5R)-5-methyl-2-oxo-pyrrolidin-3-yl]methyl]-2,3-dioxo-propyl]-2-[(3-fluorobenzoyl)amino] pyridine-3-carboxamide], 8.1 nM.
To `CNC(=O)C(=O)C(CC1C[C@@H](C(F)(F)F)NC1=O)NC(=O)c1cc(C#N)ccc1NC(=O)CCC(F)(F)F` (stereo partly drawn) [Example 88, 5-cyano-N-[3-(methylamino)-2,3-dioxo-1-[[(5S)-2-oxo-5-(trifluoromethyl)pyrrolidin-3-yl]methyl]propyl]-2-(4,4,4-trifluorobutanoylamino) benzamide] belongs 114 nM; to `C[C@@H]1C[C@@H](C[C@H](NC(=O)c2cc(Cl)ccc2NC(=O)c2ccnc(C(F)(F)F)c2)C(=O)C(N)=O)C(=O)N1` [Example 208, N-[2-[[(1S)-3-amino-1-[[(3S,5R)-5-methyl-2-oxo-pyrrolidin-3-yl]methyl]-2,3-dioxo-propyl]carbamoyl]-4-chloro-phenyl]-2-(trifluoromethyl)pyridine-4-carboxamide], 6.9 nM; to `CNC(=O)C(=O)[C@H](C[C@@H]1CCNC1=O)NC(=O)c1cc(Cl)ccc1NC(=O)OC1(C)CC1` [Example 138, (1-methylcyclopropyl) N-[4-chloro-2-[[(1S)-3-(methylamino)-2,3-dioxo-1-[[(3S)-2-oxopyrrolidin-3-yl]methyl]propyl]carbamoyl]phenyl]carbamate], 18.6 nM.
To `CNC(=O)C(=O)[C@H](C[C@@H]1C[C@@H](C(F)(F)F)NC1=O)NC(=O)c1cc(Cl)cnc1NC(=O)c1cccc(C(F)(F)F)c1` [Example 43, 5-chloro-N-[(1S)-3-(methylamino)-2,3-dioxo-1-[[(3R,5S)-2-oxo-5-(trifluoromethyl)pyrrolidin-3-yl]methyl]propyl]-2-[[3-(trifluoromethyl)benzoyl]amino]pyridine-3-carboxamide] belongs 9.6 nM.
As for `C[C@@H]1C[C@@H](C[C@H](NC(=O)c2cc(Cl)ccc2NC(=O)C2CC2C(F)(F)F)C(=O)C(=O)NC2CC2)C(=O)N1` (stereo partly drawn) [Example 85, 5-chloro-N-[(1S)-3-(cyclopropylamino)-1-[[(3S,5R)-5-methyl-2-oxo-pyrrolidin-3-yl]methyl]-2,3-dioxo-propyl]-2-[[2-(trifluoromethyl)cyclopropane-carbonyl]amino]benzamide], the IC50 was 15.2 nM.
To `C[C@@H]1C[C@@H](C[C@H](NC(=O)c2cc(Cl)ccc2NC(=O)C(C)(C)C(F)(F)F)C(=O)C(=O)NC2CC2)C(=O)N1` [Example 15, 5-chloro-N-[(1S)-3-(cyclopropylamino)-1-[[(3S,5R)-5-methyl-2-oxo-pyrrolidin-3-yl]methyl]-2,3-dioxo-propyl]-2-[(3,3,3-trifluoro-2,2-dimethyl-propanoyl)amino]benzamide] belongs 33.5 nM.
To `C[C@@H]1C[C@@H](C[C@H](NC(=O)c2cc(C#N)ccc2NC(=O)C23CC(C(F)(F)F)(C2)C3)C(=O)C(=O)NC2CC2)C(=O)N1` [Example 17] belongs 31.1 nM; to `C[C@@H]1C[C@@H](C[C@H](NC(=O)c2cc(Cl)ccc2NC(=O)c2cccc(C(F)(F)F)c2)C(=O)C(=O)NC2CC2)C(=O)N1` [Example 66, 5-chloro-N-[(1S)-3-(cyclopropylamino)-1-[[(3S,5R)-5-methyl-2-oxo-pyrrolidin-3-yl]methyl]-2,3-dioxo-propyl]-2-[[3-(trifluoromethyl)benzoyl]amino]benzamide], 7 nM.
To `CNC(=O)C(=O)[C@H](C[C@@H]1CCNC1=O)NC(=O)c1cc(Cl)ccc1NC(=O)C1CC1C(F)(F)F` (stereo partly drawn) [Example 176, 5-chloro-N-[(1S)-3-(methylamino)-2,3-dioxo-1-[[(3S)-2-oxopyrrolidin-3-yl]methyl]propyl]-2-[[2-(trifluoromethyl)cyclopropane-carbonyl]amino]benzamide] belongs 2.5 nM; to `CNC(=O)C(=O)[C@H](C[C@@H]1CCNC1=O)NC(=O)c1cc(Cl)ccc1NC(=O)OCc1ccccc1` [Example 174], 6.5 nM.
Regarding `CNC(=O)C(=O)[C@H](C[C@@H]1C[C@@H](C)NC1=O)NC(=O)c1cc(Cl)ccc1NC(=O)c1cncc(C(F)(F)F)c1` [Example 91, N-[4-chloro-2-[[(1S)-3-(methylamino)-1-[[(3S,5R)-5-methyl-2-oxo-pyrrolidin-3-yl]methyl]-2,3-dioxo-propyl]carbamoyl]phenyl]-5-(trifluoromethyl)pyridine-3-carboxamide], the IC50 came out at 6.1 nM.
The result for `CNC(=O)C(=O)[C@H](C[C@@H]1C[C@@H](C)NC1=O)NC(=O)c1cc(Cl)ccc1NC(=O)c1cccc(C(F)(F)F)c1` [Example 45, 5-chloro-N-[(1S)-3-(methylamino)-1-[[(3S,5R)-5-methyl-2-oxo-pyrrolidin-3-yl]methyl]-2,3-dioxo-propyl]-2-[[3-(trifluoromethyl)benzoyl]amino]benzamide] reads 9.4 nM.
The result for `CNC(=O)C(=O)[C@H](C[C@@H]1C[C@@H](C)NC1=O)NC(=O)c1cc(Cl)ccc1NC(=O)C1COC1` [Example 135] reads 3 nM; that for `CNC(=O)C(=O)[C@H](C[C@@H]1C[C@@H](C)NC1=O)NC(=O)c1cc(Cl)ccc1NC(=O)C(C)C(F)(F)F` (stereo partly drawn) [Example 19, 5-chloro-N-[(1S)-3-(methylamino)-1-[[(3S,5R)-5-methyl-2-oxo-pyrrolidin-3-yl]methyl]-2,3-dioxo-propyl]-2-[(3,3,3-trifluoro-2-methyl-propanoyl)amino]benzamide], 28.2 nM.
